Results: publication PMC9317902, “Multi-Targeting Approach in Glioblastoma Using Computer-Assisted Drug Discovery Tools to Overcome the Blood–Brain Barrier and Target EGFR/PI3Kp110β Signaling” (Cancers, 2022)
Like-named read-outs stand apart in the source and are kept apart here.

Legend:
U87MG cells [1] = experiment: Apoptotic cells by nuclear morphology (Hoechst) in U87MG; format: cell-based; conditions: for apoptotic cells: at EC50, 9 h
phospho-EGFR = experiment: Immunofluorescence of phospho-EGFR in U87MG cells; format: cell-based
U87MG-wtEGFR cells = experiment: MTT cell viability, U87MG-wtEGFR; format: cell-based; conditions: 24 h; for cell death: screening 0.1-100 µM
Experimental: To analyze molecules’ cytotoxicity, U87MG and U87MG-wtEGFR cells were seeded into 96-well plates at a density of 2.5 × 10^4 cells/mL, and after 48 h were incubated with 0.1, 1, 10, or 100 µM of each molecule diluted in (non-supplemented) cell medium for 24 h. […] Dose–response data were also obtained for treatment with triton X-100 (positive control) and DMSO (vehicle; negative control). The cytotoxicity of selected molecules from initial screening was tested in HBMEC at 100 µM for 24 h. HBMEC were seeded at a density of 8 × 10^4 cell/mL in 96-well plates and after 48 h were incubated with the molecules.
In screening assays, cell viability was evaluated using thiazolyl blue tetrazolium bromide (MTT). Briefly, a culture medium containing 0.5 mg/mL of MTT was added to each well for 90 min at 37 °C. The supernatant was removed and the formed formazan crystals in viable cells were solubilized with 0.04 N HCl in isopropanol solution.

HBMEC [2] = experiment: HBMEC integrity and morphology (β-catenin, F-actin immunofluorescence); format: cell-based, human
From the text: (§1) HBMEC in coverslips were stained for: the junctional protein β-catenin (1:100, Thermo Fisher Scientific, Waltham, MA, USA, #71-2700), the cytoskeleton protein F-actin (1:1000, Phalloidin dye, Abcam, Cambridge, UK, #ab17675), and the efflux transporter P-gp (1:50, Santa Cruz Biotechnology, Dallas, TX, USA, #sc-390883). HBMEC seeded on polyester inserts for transport assays were also stained for the junctional protein zonula occludens-1 (ZO-1, 1:200, Thermo Fisher Scientific, Waltham, MA, USA, #40-2200) and the cytoskeleton protein vimentin (1:100, Thermo Fisher Scientific, Waltham, MA, USA, #MA3745).
(§2) Incubations with primary antibodies occurred overnight at 4 °C. Incubation with the secondary antibodies Alexa Fluor 555 (1:500, Thermo Fisher Scientific, Waltham, MA, USA, #A21428) or Alexa Fluor 488 (1:500, Thermo Fisher Scientific, Waltham, MA, USA, #A11001) lasted for 1 h at room temperature. Nuclei were counterstained with Hoechst 33342 dye (1:1000, Thermo Fisher Scientific, Waltham, MA, USA, #33342) for 10 min. Before mounting with DPX (Merck Millipore, Burlington, MA, USA), cells were dehydrated with methanol. Negative controls were performed.
(§3) All acquired images were treated in ImageJ (NIH, Bethesda, MD, USA). Assessment of nuclear morphology following Hoechst staining was evaluated. For fluorescence intensity measures, the regions of interest were selected in Image J, and corresponding integrated densities were obtained. The representative 3D plots for BBB integrity were obtained by merged pixel intensity using the surface plot tool of Image J. For F-actin stress fibers analysis, the plot profile tool of Image J was used considering each defined cell-ferret diameter.
For analysis of β-catenin internalization and HBMEC morphological changes, Icy software was used. At least 5 cells per field were delineated and the conveyed values of membrane/interior pixels and roundness (area/perimeter^2) were exported and analyzed. Taking advantage of membrane staining (β-catenin), the BBB’s integrity was also analyzed by quantifying the total area of intercellular gaps in the HBMEC monolayer.

HBMEC [3] = experiment: MTT cell viability, HBMEC; format: cell-based, human; conditions: 24 h, 100 µM
Experimental: (§4) To analyze molecules’ cytotoxicity, U87MG and U87MG-wtEGFR cells were seeded into 96-well plates at a density of 2.5 × 10^4 cells/mL, and after 48 h were incubated with 0.1, 1, 10, or 100 µM of each molecule diluted in (non-supplemented) cell medium for 24 h. The half-maximal effective concentration (EC50) of the most cytotoxic compounds was quantified. Dose–response data were also obtained for treatment with triton X-100 (positive control) and DMSO (vehicle; negative control). The cytotoxicity of selected molecules from initial screening was tested in HBMEC at 100 µM for 24 h. HBMEC were seeded at a density of 8 × 10^4 cell/mL in 96-well plates and after 48 h were incubated with the molecules.
(§5) In screening assays, cell viability was evaluated using thiazolyl blue tetrazolium bromide (MTT). Briefly, a culture medium containing 0.5 mg/mL of MTT was added to each well for 90 min at 37 °C. The supernatant was removed and the formed formazan crystals in viable cells were solubilized with 0.04 N HCl in isopropanol solution. The absorbance was recorded using a microplate reader (Zenyth 3100, Anthos Labtec Instruments, Salzburg, Austria) at 595 nm, and values of cell viability were calculated as percentage of negative control.

P-gp = P-gp expression in HBMEC (immunofluorescence); format: cell-based, human; conditions: U87MG EC50, 9 h
From the text: as §1, §2, §3

U87MG cells [4] = experiment: MTT cell viability, U87MG; format: cell-based; conditions: 24 h; for EC50 / cell death: U87MG; for cell death: screening 0.1-100 µM
Experimental: as §4, §5

phospho-AKT = experiment: Immunofluorescence of phospho-AKT in U87MG cells; format: cell-based; conditions: at EC50, after 6 h exposure
U87 cells = tested on: U87 cells; design: method as in PMID 34794398; conditions: depending on the incubation time; cited from earlier work
[5] = tested on: patient-derived cell lines; design: method as in PMID 34794398; conditions: 72 h, read-out: median IC50; cited from earlier work
[6] = several cell-based studies; cited from earlier work

For `Brc1ccc(Nc2ncnc3ccccc23)cc1` [Mol 17], the apoptotic cells (U87MG cells [1]) was about 40%, the “phospho-EGFR expression, of that observed in control” value (phospho-EGFR; at EC50, 9 h) was “about 30%” and the EC50 (U87MG-wtEGFR cells; U87MG-wtEGFR, MTT, read-out: EC50) was 50.4 ± 5.21 µM. For the same compound, the cell death (U87MG-wtEGFR cells; U87MG-wtEGFR, MTT) was at least 50%, the “F-actin stress fibers per cell” value (HBMEC [2]; human, 9 h) was “highly increased the number of stress fibers/cell” and the “HBMEC shape (roundness)” value (HBMEC [2]; human, 9 h) was “increased cell roundness”. The “disrupted barrier integrity (endothelial gaps), of control” value (HBMEC [2]; human, 9 h) was 78%, the “β-catenin expression and location” value (HBMEC [2]; human, 9 h) was “irregular and discontinuous appearance” and the “impairment of HBMEC cell viability” value (HBMEC [3]; human) was “about 65%”. For the same compound, the “P-gp expression (mean intensity) in HBMEC” value (P-gp) was “significant increase in P-gp mean intensity”, the EC50 (U87MG cells [4]; Homo sapiens, U-87 MG) was 129 ± 14.5 µM and the cell death (U87MG cells [4]) was at least 50%.

In the case of `C=CC(=O)Nc1cc2c(Nc3ccc(F)c(Cl)c3)ncnc2cc1OCCCN1CCOCC1` [Mol 25, canertinib, reference compound], the apoptotic cells (U87MG cells [1]) is reported as about 85%, the “reduction of mean intensity of phosphorylated EGFR” value (phospho-EGFR; at EC50, 9 h) is reported as 92.6% and the “inhibition of phospho-EGFR expression” value (phospho-EGFR; at EC50, after 6 h exposure) is reported as over 50%. For the same compound, the EC50 (U87MG-wtEGFR cells) was 11.3 ± 2.15 µM, the cell death (U87MG-wtEGFR cells; U87MG-wtEGFR, MTT) was at least 50% and the HBMEC detachment (HBMEC [2]; human, 9 h) was 100%. For the same compound, the “impairment of HBMEC cell viability” value (HBMEC [3]; human) was about 100%, the viability at 100 µM (U87MG cells [4]; Homo sapiens, U-87 MG, 100 µM, GB cell line not given, read-out: viable cells) was about 0% and the EC50 (U87MG cells [4]; Homo sapiens, U-87 MG) was 16.3 ± 2.26 µM. The cell death (U87MG cells [4]) was at least 50% and the “inhibition of phospho-AKT expression” value (phospho-AKT) was over 50%.

For `C=CC(=O)Nc1ccc2ncnc(Nc3cccc(Br)c3)c2c1` [Mol 27], the apoptotic cell death (U87MG cells [1]; at EC50, 6 h) was 12.8%, the apoptotic cells (U87MG cells [1]) was 31.9% and the “F-actin stress fibers per cell” value (HBMEC [2]; HBMEC, U87MG EC50, 9 h) was “highly increased the number of stress fibers/cell”. The “HBMEC shape (roundness)” value (HBMEC [2]; HBMEC, U87MG EC50, 9 h) was “increased cell roundness”, the “β-catenin expression and location” value (HBMEC [2]; HBMEC, U87MG EC50, 9 h) was “irregular and discontinuous appearance” and the “disrupted barrier integrity (endothelial gaps), of control” value (HBMEC [2]; HBMEC, U87MG EC50, 9 h, β-catenin staining) was 82%. For the same compound, the “impairment of HBMEC cell viability” value (HBMEC [3]; MTT) was about 58%, the “P-gp expression (mean intensity) in HBMEC” value (P-gp) was “significant increase in P-gp mean intensity” and the EC50 (U87MG cells [4]; Homo sapiens, U-87 MG) was 22.7 ± 2.22 µM. The cell death (U87MG cells [4]) was at least 50% and the “inhibition of phospho-AKT expression” value (phospho-AKT) was over 50%.

For `Cn1nnc2c(C(N)=O)ncn2c1=O` [TMZ, temozolomide], the IC50 (U87 cells) is listed as 124 to 230 µM, the IC50 [5] is listed as 800 µM and the “doses at which more than 50% cytotoxicity was seen” value [6] is listed as “up to 4000 µM”.
